Measured values taken from ChEMBL document CHEMBL1134059, “Synthesis and antifungal activities of novel 1,3-beta-D-glucan synthase inhibitors. Part 2” (Bioorg Med Chem Lett, 2001).
Values after ≈ are worked out from the molar mass of the structure shown.

Tests used:
[1] = target: Beta-1,3-glucan synthase (Candida albicans, UniProt O13428); assay: In vitro inhibitory activity against Beta glucan synthase
[2] = system: Nakaseomyces glabratus; assay: Antifungal activity against Candida glabrata ATCC 2001; assay type: functional
[3] = system: Scedosporium boydii; assay: Antifungal activity against Scedosporium […] IFM40731N.; assay type: functional
[4] = system: Candida albicans; assay: In vitro antifungal activity against Candida albicans CY1002; assay type: functional, organism-based
[5] = system: Candida albicans; assay: Antifungal activity against Candida albicans KB fluconazole resistant strain.; assay type: functional
[6] = system: Aspergillus fumigatus; assay: Antifungal activity against Aspergillus fumigatus MTU06002; assay type: functional
[7] = species on record: Mus musculus; assay: Hepatotoxicity using inclusion-body formation test in hepatocytes of mice; assay type: functional, Hepatocyte
[8] = system: Candida tropicalis; assay: Antifungal activity against Candida tropicalis ATCC 13803; assay type: functional
[9] = system: Candida albicans; assay: In vitro antifungal activity against Candida albicans CY1002 using 80 percent serum; assay type: functional, organism-based
[10] = system: Mus musculus; assay: In vivo efficacy against Candida albicans CY1002 5E6 cells for systemic candidiasis in mice after iv treatment on day 7; assay type: functional; settings: CY1002 5E6, iv, 168 h
[11] = system: Lomentospora prolificans; assay: Antifungal activity against Scedosporium prolificans ATCC 20054; assay type: functional
[12] = system: Pichia kudriavzevii; assay: Antifungal activity against Candida krusei ATCC 20579; assay type: functional
[13] = system: Candida albicans; assay: Antifungal activity against Candida albicans ATCC 48130; assay type: functional
[14] = system: Mus musculus; assay: In vivo efficacy against Aspergillus fumigatus CF1083 1E4 conidia/g for pulmonary aspergillosis in mice after iv treatment on day 14; assay type: functional; settings: 336 h

Beta-1,3-glucan synthase, sequence (O13428 whole entry): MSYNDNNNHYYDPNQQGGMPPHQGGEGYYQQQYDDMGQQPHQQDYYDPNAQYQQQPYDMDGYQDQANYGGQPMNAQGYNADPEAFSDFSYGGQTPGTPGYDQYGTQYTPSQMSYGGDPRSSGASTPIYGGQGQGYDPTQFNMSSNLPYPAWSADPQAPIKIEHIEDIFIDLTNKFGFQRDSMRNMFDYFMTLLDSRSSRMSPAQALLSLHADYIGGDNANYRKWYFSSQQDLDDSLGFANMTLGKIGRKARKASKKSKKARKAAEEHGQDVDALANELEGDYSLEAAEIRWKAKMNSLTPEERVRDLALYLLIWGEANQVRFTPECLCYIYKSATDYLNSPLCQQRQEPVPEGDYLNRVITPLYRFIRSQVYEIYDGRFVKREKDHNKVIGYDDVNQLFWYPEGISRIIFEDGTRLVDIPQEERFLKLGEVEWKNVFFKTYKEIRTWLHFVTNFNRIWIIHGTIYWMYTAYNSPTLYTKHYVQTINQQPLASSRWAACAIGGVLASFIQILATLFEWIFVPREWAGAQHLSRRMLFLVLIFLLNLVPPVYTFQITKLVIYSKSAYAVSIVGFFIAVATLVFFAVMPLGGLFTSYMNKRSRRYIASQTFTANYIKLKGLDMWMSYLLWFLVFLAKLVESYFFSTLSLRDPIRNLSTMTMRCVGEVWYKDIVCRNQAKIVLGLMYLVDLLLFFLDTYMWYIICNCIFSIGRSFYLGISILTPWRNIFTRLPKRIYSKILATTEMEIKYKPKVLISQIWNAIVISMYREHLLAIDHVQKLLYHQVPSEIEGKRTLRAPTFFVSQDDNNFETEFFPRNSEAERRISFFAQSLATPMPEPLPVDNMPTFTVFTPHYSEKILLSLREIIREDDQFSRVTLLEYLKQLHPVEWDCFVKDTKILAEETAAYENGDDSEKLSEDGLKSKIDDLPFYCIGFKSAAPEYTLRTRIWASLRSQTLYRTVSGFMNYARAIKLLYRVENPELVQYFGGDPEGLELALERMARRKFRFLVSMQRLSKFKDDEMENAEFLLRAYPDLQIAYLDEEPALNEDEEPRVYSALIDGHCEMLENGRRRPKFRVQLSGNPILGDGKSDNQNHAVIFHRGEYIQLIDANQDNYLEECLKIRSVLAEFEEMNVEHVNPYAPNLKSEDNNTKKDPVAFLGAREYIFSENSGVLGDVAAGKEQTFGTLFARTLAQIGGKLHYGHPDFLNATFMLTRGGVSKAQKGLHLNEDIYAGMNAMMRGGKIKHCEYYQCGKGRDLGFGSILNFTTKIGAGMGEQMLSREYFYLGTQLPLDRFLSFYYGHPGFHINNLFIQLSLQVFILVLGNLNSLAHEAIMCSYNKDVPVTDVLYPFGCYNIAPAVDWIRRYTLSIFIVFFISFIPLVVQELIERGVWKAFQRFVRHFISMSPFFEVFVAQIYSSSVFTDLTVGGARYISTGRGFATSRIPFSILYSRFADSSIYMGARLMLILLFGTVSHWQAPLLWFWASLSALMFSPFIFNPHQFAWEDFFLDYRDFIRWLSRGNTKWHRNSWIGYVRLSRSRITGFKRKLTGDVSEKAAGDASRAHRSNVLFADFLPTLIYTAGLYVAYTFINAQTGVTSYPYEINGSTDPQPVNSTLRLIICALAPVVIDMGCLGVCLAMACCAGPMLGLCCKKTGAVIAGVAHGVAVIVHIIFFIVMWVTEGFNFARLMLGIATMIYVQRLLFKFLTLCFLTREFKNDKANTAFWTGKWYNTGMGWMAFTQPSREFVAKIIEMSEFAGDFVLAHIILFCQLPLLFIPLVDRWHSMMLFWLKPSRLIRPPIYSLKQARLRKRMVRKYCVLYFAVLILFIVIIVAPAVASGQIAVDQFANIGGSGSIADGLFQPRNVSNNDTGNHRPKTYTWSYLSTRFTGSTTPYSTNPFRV

Row | SMILES | IC50 [1] [nM] | MIC [2] [µg/mL] | MIC [3] [µg/mL] | IC50 [4] [µg/mL] | MIC [5] [µg/mL] | MIC [6] [µg/mL] | Observed at [7] [µg/mL] | MIC [8] [µg/mL] | IC50 [9] [µg/mL] | ED50 [10] [mg/kg] | MIC [11] [µg/mL] | MIC [12] [µg/mL] | MIC [13] [µg/mL] | ED50 [14] [mg/kg]
1 | CC[C@H](C)C[C@H](C)CCCCCCCCC(=O)N[C@H]1C[C@@H](O)[C@@H](NCCN)NC(=O)[C@@H]2[C@@H](O)CCN2C(=O)[C@H]([C@H](O)CCN)NC(=O)[C@H]([C@H](O)[C@@H](O)c2ccc(O)cc2)NC(=O)[C@@H]2C[C@@H](O)CN2C(=O)[C@H]([C@@H](C)O)NC1=O | 1.3 | – | – | – | – | – | – | – | – | – | – | – | – | –
2 | CCCCCCCCCCCCC[C@@H]1CC(=O)N[C@@H]([C@@H](C)O)C(=O)N[C@H](C)C(=O)N[C@@H](Cc2ccc(O)cc2)C(=O)N[C@@H](C(C)C)C(=O)N2C[C@H](O)C[C@H]2C(=O)N[C@@H]([C@@H](C)O)C(=O)N[C@@H]([C@@H](C)O)C(=O)N2CC[C@H](O)[C@H]2C(=O)N[C@@H]([C@H](O)CC(N)=O)C(=O)NCC(=O)N[C@@H]([C@@H](C)O)C(=O)N[C@@H](CCCN(CCN)C(=O)[C@H](CCCN)N(CCN)CCN)C(=O)O1 | 0.2 | 1.3 (≈ 0.732 µM) | 0.35 (≈ 0.197 µM) | 0.31 (≈ 0.174 µM) | 0.35 (≈ 0.197 µM) | 0.34 (≈ 0.191 µM) | 100 | 0.62 (≈ 0.349 µM) | 0.24 (≈ 0.135 µM) | 0.08 | 2.2 (≈ 1.24 µM) | 0.28 (≈ 0.158 µM) | 0.37 (≈ 0.208 µM) | 5.2
3 | CCCCCCCCCCCCC[C@@H]1CC(=O)N[C@@H]([C@@H](C)O)C(=O)N[C@H](C)C(=O)N[C@@H](Cc2ccc(O)cc2)C(=O)N[C@@H](C(C)C)C(=O)N2C[C@H](O)C[C@H]2C(=O)N[C@@H]([C@@H](C)O)C(=O)N[C@@H]([C@@H](C)O)C(=O)N2CC[C@H](O)[C@H]2C(=O)N[C@@H]([C@H](O)CC(N)=O)C(=O)NCC(=O)N[C@@H]([C@@H](C)O)C(=O)N[C@@H](CCCN(CCCN)C(=O)[C@H](N)CCCN)C(=O)O1 | 0.83 | – | – | 0.37 (≈ 0.217 µM) | – | – | 30 | – | 0.27 (≈ 0.158 µM) | 0.05 | – | – | – | 5.2
4 | CCCCCCCCCCCCC[C@@H]1CC(=O)N[C@@H]([C@@H](C)O)C(=O)N[C@H](C)C(=O)N[C@@H](Cc2ccc(O)cc2)C(=O)N[C@@H](C(C)C)C(=O)N2C[C@H](O)C[C@H]2C(=O)N[C@@H]([C@@H](C)O)C(=O)N[C@@H]([C@@H](C)O)C(=O)N2CC[C@H](O)[C@H]2C(=O)N[C@@H]([C@H](O)CC(N)=O)C(=O)NCC(=O)N[C@@H]([C@@H](C)O)C(=O)N[C@@H](CCCN(CCCN)C(=O)[C@@H](N)CCCN)C(=O)O1 | 0.89 | – | – | 0.47 (≈ 0.276 µM) | – | – | 30 | – | 0.27 (≈ 0.158 µM) | 0.07 | – | – | – | 8.7
5 | CCCCCCCCCCCCC[C@@H]1CC(=O)N[C@@H]([C@@H](C)O)C(=O)N[C@H](C)C(=O)N[C@@H](Cc2ccc(O)cc2)C(=O)N[C@@H](C(C)C)C(=O)N2C[C@H](O)C[C@H]2C(=O)N[C@@H]([C@@H](C)O)C(=O)N[C@@H]([C@@H](C)O)C(=O)N2CC[C@H](O)[C@H]2C(=O)N[C@@H]([C@H](O)CC(N)=O)C(=O)NCC(=O)N[C@@H]([C@@H](C)O)C(=O)N[C@@H](CCCNC(=O)[C@@H](CCCN)N(CCN)CCN)C(=O)O1 | 0.63 | 1.4 (≈ 0.807 µM) | – | 0.31 (≈ 0.179 µM) | 0.68 (≈ 0.392 µM) | 0.67 (≈ 0.386 µM) | 30 | 0.35 (≈ 0.202 µM) | 0.31 (≈ 0.179 µM) | 0.13 | – | 0.54 (≈ 0.311 µM) | 0.31 (≈ 0.179 µM) | 11.6
6 | CCCCCCCCCCCCC[C@@H]1CC(=O)N[C@@H]([C@@H](C)O)C(=O)N[C@H](C)C(=O)N[C@@H](Cc2ccc(O)cc2)C(=O)N[C@@H](C(C)C)C(=O)N2C[C@H](O)C[C@H]2C(=O)N[C@@H]([C@@H](C)O)C(=O)N[C@@H]([C@@H](C)O)C(=O)N2CC[C@H](O)[C@H]2C(=O)N[C@@H]([C@H](O)CC(N)=O)C(=O)NCC(=O)N[C@@H]([C@@H](C)O)C(=O)N[C@@H](CCCNC(=O)[C@H](CCCN)N(CCN)CCN)C(=O)O1 | 0.9 | – | – | 0.37 (≈ 0.213 µM) | – | – | 100 | – | 0.55 (≈ 0.317 µM) | 0.33 | – | – | – | 8.7
7 | CCCCCCCCCCCCC[C@@H]1CC(=O)N[C@H]([C@@H](C)O)C(=O)N[C@H](C)C(=O)N[C@@H](Cc2ccc(O)cc2)C(=O)N[C@@H](C(C)C)C(=O)N2C[C@H](O)C[C@H]2C(=O)N[C@H]([C@@H](C)O)C(=O)N[C@@H]([C@@H](C)O)C(=O)N2CC[C@H](O)[C@H]2C(=O)N[C@@H]([C@H](O)CC(N)=O)C(=O)NCC(=O)N[C@H]([C@@H](C)O)C(=O)N[C@@H](CCCN(CCCN)C(=O)[C@@H](CCCN)N(CCN)CCN)C(=O)O1 | 0.25 | 1.2 (≈ 0.67 µM) | 0.37 (≈ 0.207 µM) | 0.39 (≈ 0.218 µM) | 0.31 (≈ 0.173 µM) | 0.58 (≈ 0.324 µM) | 100 | 0.56 (≈ 0.313 µM) | 0.26 (≈ 0.145 µM) | 0.12 | 0.37 (≈ 0.207 µM) | 0.28 (≈ 0.156 µM) | 0.37 (≈ 0.207 µM) | 5.8
